Like-named read-outs stand apart in the source and are kept apart here.
Legend:
[1] = system: Chinese hamster ovary cells (CHO-WBL cells); assay: In vitro micronucleus assay; format: cell-based; conditions: 3 h with S9, 3 h without S9, 24 h without S9, overall judgment positive/negative
Source text: The cell stock solution was stored in liquid nitrogen. The karyotype of each batch of cell stock solution was identified, and tests confirmed that it was free from mycoplasma contamination. The number of passages after cell cloning will not exceed 15.
Immediately before use, the S9 homogenate was thawed, and the components of the S9 metabolic activation system were mixed in the proportions shown in Table 2 below.
Dose exploration experiment: In the dose exploration experiment, 8 administration concentrations were established in each administration treatment series. For each concentration of the test substance, 1 well of cells was set up.

α1-GABAA receptor = biological target: T1, α1-GABAA receptor (Homo sapiens, UniProt P14867+P18507); assay: Whole-cell patch-clamp electrophysiological test of positive allosteric modulation, α1-GABAAR-HEK293 cells; format: cell-based; conditions: read-out: Positive allosteric modulation activity on α1-GABAAR
T1 construct: expressed in transfected cells
Source text: (§1) An α subunit, a β subunit, and a γ subunit are essential for the formation of a complete functional GABAA receptor. […] The α1-GABAAR-HEK293 cell model simultaneously expressed the α1 subunit (protein sequence available in GenBank with an accession No.: NM_000806.5), the β3 subunit (protein sequence available in GenBank with an accession No.: NM_000814.5), and the γ2 subunit (protein sequence available in GenBank with an accession No.: NM_000816.3). The α2-GABAAR-HEK293 cell model simultaneously expressed the α2 subunit (protein sequence available in GenBank with an accession No.: NM_000807.4), the β3 subunit (protein sequence available in GenBank with an accession No.: NM_000814.5), and the γ2 subunit (protein sequence available in GenBank with an accession No.: NM_000816.3).
(§2) The above cell lines were subcultured. The α2-GABAAR-HEK293 cells were expanded for assay of the benzodiazepine (BZD) site affinity of compounds for GABAA receptors.
(§3) The positive regulation activity of the test drugs on the α1-GABAA receptor and the α2-GABAA receptor was detected by the electrophysiological method. The specific method was as follows:
(§4) Compound concentration setting: the final concentration of the compounds used for screening was 100 nM. […] The components of the extracellular solution (ECS) for electrophysiology were as follows: 150 mM NaCl, 5 mM KCl, 2.5 mM CaCl2, 1 mM MgCl2, 10 mM HEPES, and 10 mM glucose (pH 7.4); the formulation of the intracellular solution (ICS) of electrodes for electrophysiology was as follows: 140 mM CsCl, 11 mM EGTA, 10 mM HEPES, 2 mM CaCl2, 1 mM MgCl2, 4 mM MgATP, and 2 mM TEA (pH 7.3). GABA (γ-aminobutyric acid) powder was prepared into a mother liquor with pure water, which was then diluted in ECS; the compounds were first prepared into 4 mM mother liquors with dimethyl sulfoxide and then gradually diluted to corresponding concentrations in GABA-ECS. The solutions were all prepared freshly prior to the electrophysiological test.
(§5) Electrophysiological signal acquisition was performed using an EPC 10 amplifier and PatchMaster software (HEKA) or an Axon700B amplifier and Clampex software (AXON).
(§6) The recording electrode was made by pulling borosilicate glass, with an electrode resistance of 4-6 MΩ. Extracellular administration was performed using the ALA-VC-8PG™ system. A single, independently growing cell was selected. After the glass electrode formed a good seal with the cell, the membrane was ruptured to form the whole-cell configuration. The cell membrane potential was clamped at −60 mV and recorded in Gap-free mode. During the test, the extracellular solution was first applied extracellularly for about 20 s. After the baseline (Iprebaseline) stabilized, the extracellular solution was switched to GABA-ECS. At this time, the current caused by GABA (Igaba) could be detected. After about 10-20 s, when the current stabilized, the extracellular solution was switched to a mixed solution of the compound and GABA-ECS. At this point, the current caused by both the compound and GABA (Itreatment) could be detected. Finally, the solution was switched to the extracellular solution, and the test was terminated after recording for 20-40 s.
(§7) The current values at each stage were calculated based on the average value of the current after stabilization under the corresponding conditions. We defined the control current as Igaba−Iprebaseline, and the current after compound treatment as Itreatment−Iprebaseline. The allosteric modulation activity of the compounds was expressed as a percentage, calculated by the following formula: functional activity=[(Itreatment−Igaba)/(Igaba−Iprebaseline)]×100%.

α2-GABAA receptor [2] = biological target: T2, α2-GABAA receptor (Homo sapiens, UniProt P18507+P47869); assay: Whole-cell patch-clamp electrophysiological test of positive allosteric modulation, α2-GABAAR-HEK293 cells; format: cell-based; conditions: read-out: Positive allosteric modulation activity on α2-GABAAR
T2 construct: expressed in transfected cells
Source text: as §1, §2, §3, §4, §5, §6, §7

α2-GABAA receptor [3] = biological target: T2, α2-GABAA receptor; assay: Radioligand (3H-flunitrazepam) competitive binding assay at the BZD site
Source text: as §1, §2
The affinity of the compounds for the α2-GABAA receptor was determined by competing with ^3H-flunitrazepam (isotope ^3H-labelled flunitrazepam) for binding to the BZD site on the membrane proteins of HEK293 cells stably expressing the human α2-GABAA receptor.
Membrane preparation: The cells were suspended in 50 mM Tris-HCl buffer (pH=7.4), homogenized 10 times (20 s for each time) with a homogenizer on ice, and then centrifuged at 4° C. at 1000 g for 10 min. The supernatant was taken. The above steps were repeated. The supernatant was centrifuged (33800 g; Thermo, rotor: A27-8×50) at 4° C. for 60 min. The pellet was resuspended in Tris buffer (50 mM Tris-HCl, 10 mM MgCl2, 0.5 mM EDTA, and 10% glycerol). The protein content was determined (BCA (bicinchoninic acid) protein quantification assay based on the copper ion reduction method, with a BCA kit purchased from Pierce (Annoron (Beijing) Biotechnology Co., Ltd.)), and 1 mL aliquots were prepared and stored at −80° C.
Radioligand competitive binding assay: This assay was performed in a 200 μL system (96-well plate) containing 100 μL of cell membranes. The concentration of ^3H-flunitrazepam was 1 nM, and the concentrations of the test compounds were in the range of […]. Flumazenil was used as a control. To each low control (LC) well was added 1 μL of 2 mM flumazenil (the final concentration of 10 μM), and to each high control (HC) well was added 1 μL of dimethyl sulfoxide. The final concentration of the target membrane protein was […]. All sample stock solutions of test compounds were 10 mM solutions in dimethyl sulfoxide. All the samples were diluted to a concentration of 0.2 mM with dimethyl sulfoxide, and then subjected to a 4-fold serial dilution to give a total of 8 working concentration gradients. The 96-well plate was sealed with a plate sealing membrane and then incubated on a shaker at room temperature for 1 h. Meanwhile, a GF/C filter plate was soaked in a plate soaking buffer (0.3% PEI (polyethyleneimine, purchased from: Sigma-Aldrich, model: P314), stored at 4° C.) for at least 0.5 h. After the binding incubation was completed, the cells were harvested onto the GF/C filter plate using a cell harvester and washed 4 times with a washing buffer (50 mM Tris-HCl, pH 7.4, stored at 4° C.). After drying in an oven at 50° C. for 1 h, the dried GF/C filter plate was bottom-sealed. The residual radioactivity on the filter membrane was detected by liquid scintillation counting. Scintillation fluid was added at 50 µL/well, and then the plate was sealed. Readings were taken using Microbeta^2 (microplate counter, purchased from: PerkinElmer, model: CNLL0153). The inhibitory activity of the test samples on the binding of ^3H-flunitrazepam to the GABAA receptor membrane protein was calculated.

[4] = compound 100 nM, GABA about EC2-4, normalised to positive compound CVL-865 (=100%), negative value = reverse allosteric modulation
[5] = membranes of HEK293 cells stably expressing human α2-GABAA receptor (α2β3γ2), 1 nM 3H-flunitrazepam, Ki calculated from IC50, read-out: α2 Ki
[6] = compound 100 nM, GABA 0.10-0.11 M [sic] (about EC70.8), normalised to positive compound CVL-865 (=100%)

activation at 0.1 µM (α1-GABAA receptor; [4]) [%] | Ki (α2-GABAA receptor [3]; [5]) [nM] | activation at 0.1 µM (α2-GABAA receptor [2]; [6]) [%] | Compound | Results of in vitro micronucleus assay [1] | activation at 0.1 µM (α1-GABAA receptor) [%] | activation at 0.1 µM (α2-GABAA receptor [2]) [%] | Ki (α2-GABAA receptor [3]) [nM]
44 | 16.5 | 82 | CCn1cnc2c(-c3ccc(F)c(-c4c(OC)ccc5nccn45)c3)cnnc21 [Example 49, 7-Ethyl-4-(4-fluoro-3-(6-methoxyimidazo[1,2-a]pyridin-5-yl)phenyl)-7H-imidazo[4,5-c]pyridazine] |  |  |  | 
19 | 8.07 | 99 | CCn1cnc2c(-c3ccc(F)c(-c4cn5ccnc5cc4OC)c3)cnnc21 [Example 52, 7-Ethyl-4-(4-fluoro-3-(7-methoxyimidazo[1,2-a]pyridin-6-yl)phenyl)-7H-imidazo[4,5-c]pyridazine] |  |  |  | 
47 | 2.96 | 100 | CCn1cnc2c(-c3ccc(F)c(-c4ccn5c(C)cnc5c4COC)c3)cnnc21 [Example 54, 7-Ethyl-4-(4-fluoro-3-(8-(methoxymethyl)-3-methylimidazo[1,2-a]pyridin-7-yl)phenyl)-7H-imidazo[4,5-c]pyridazine] |  |  |  | 

Continued, compound first:

Compound | activation at 0.1 µM (α1-GABAA receptor; [4]) [%] | Ki (α2-GABAA receptor [3]; [5]) [nM] | activation at 0.1 µM (α2-GABAA receptor [2]; [6]) [%] | Results of in vitro micronucleus assay [1] | activation at 0.1 µM (α1-GABAA receptor) [%] | activation at 0.1 µM (α2-GABAA receptor [2]) [%] | Ki (α2-GABAA receptor [3]) [nM]
CCn1cnc2c(-c3ccc(F)c(-c4ccc(S(=O)(=O)CC)cc4OC)c3)cnnc21 [CVL-865, reference compound] |  |  |  | Positive | 100 | 100 | 
CCn1cnc2c(-c3ccc(F)c(-c4cn5cc(C6CC6)nc5cc4OC)c3)cnnc21 [Example 37, 4-(3-(2-Cyclopropyl-7-methoxyimidazo[1,2-a]pyridin-6-yl)-4-fluorophenyl)-7-ethyl-7H-imidazo[4,5-c]pyridazine] |  |  |  | Negative | 74 | 79 | 6.39
CCn1cnc2c(-c3ccc(F)c(-c4cn5cc(C)nc5cc4OC)c3)cnnc21 [Example 50, 7-Ethyl-4-(4-fluoro-3-(7-methoxy-2-methylimidazo[1,2-a]pyridin-6-yl)phenyl)-7H-imidazo[4,5-c]pyridazine] |  |  |  |  | 29 | 103 | 9.89
CCn1cnc2c(-c3ccc(F)c(-c4ccn5c(C)nnc5c4COC)c3)cnnc21 [Example 58, 7-Ethyl-4-(4-fluoro-3-(8-(methoxymethyl)-3-methyl-[1,2,4]triazolo[4,3-a]pyridin-7-yl)phenyl)-7H-imidazo[4,5-c]pyridazine] | 40 | 11.4 | 123 |  |  |  | 
